In PMC7504814, “Coumarin and Moracin Derivatives from Mulberry Leaves (Morus alba L.) with Soluble Epoxide Hydrolase Inhibitory Activity” (Molecules, 2020):
Where two headings read alike, the source gives them in different places.

Assays:
[1] = molecular target: T1, sEH (Homo sapiens, UniProt P34913); assay: sEH kinetic assay (Lineweaver-Burk and Dixon plots); type: biochemical; conditions: PHOME 5–80 µM; for Type of inhibition: Lineweaver-Burk plots; for Ki: calculated from Dixon plots
T1 construct: purchased Cayman Chemical Company 10011669
T1 sequence (P34913 1-555): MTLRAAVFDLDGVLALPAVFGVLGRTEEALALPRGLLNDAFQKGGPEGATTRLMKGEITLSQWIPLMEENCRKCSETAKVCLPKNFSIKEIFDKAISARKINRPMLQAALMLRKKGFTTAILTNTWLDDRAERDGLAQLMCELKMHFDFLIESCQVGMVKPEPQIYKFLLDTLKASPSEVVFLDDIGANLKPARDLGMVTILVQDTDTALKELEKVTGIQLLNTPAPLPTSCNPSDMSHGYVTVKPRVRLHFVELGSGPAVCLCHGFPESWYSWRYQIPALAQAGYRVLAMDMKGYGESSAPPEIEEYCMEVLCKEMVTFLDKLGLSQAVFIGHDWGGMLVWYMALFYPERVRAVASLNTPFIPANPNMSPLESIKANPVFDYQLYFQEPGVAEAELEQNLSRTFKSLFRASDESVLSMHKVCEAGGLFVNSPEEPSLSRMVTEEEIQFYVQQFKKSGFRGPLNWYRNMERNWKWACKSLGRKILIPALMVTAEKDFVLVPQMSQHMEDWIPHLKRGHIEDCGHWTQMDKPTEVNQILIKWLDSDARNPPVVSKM

[2] = molecular target: T1, sEH; assay: sEH inhibition assay with PHOME fluorescent substrate; type: biochemical; conditions: for inhibition at 100 µM: compound at 100 µM, read-out: Inhibition of Compounds on sEH, 100 µM(%)
[3] = PHOME substrate, mean ± SD (n = 3), read-out: Inhibition of Compounds on sEH, IC50
[4] = PHOME substrate, mean ± SD (n = 3)

SMILES	Type of inhibition [1]	Ki [1] [nM]	IC50 [2, 3] [nM]	inhibition at 100 µM [2, 4] [%]	IC50 [2] [nM]
COc1cc2ccc(=O)oc2cc1O [Compound 2, scopoletin]	competitive	300	200 ± 100	100	
Oc1cc(O)cc(-c2cc3ccc(O)cc3o2)c1 [Compound 6, moracin M]	competitive	1500	9900 ± 2200	100	
COc1cc2cc(-c3cc(O)cc(O)c3)oc2cc1O [Compound 5, moracin J]	mixed types of inhibitors	2100	1200 ± 100	100	
COc1cc2ccc(=O)oc2cc1OC1OC(CO)C(O)C(O)C1O (stereo not drawn) [Compound 3]	competitive	5400	15900 ± 400	100	
OCC1OC(Oc2cc(O)cc(-c3cc4ccc(O)cc4o3)c2)C(O)C(O)C1O (stereo not drawn) [Compound 7, moracin M 3’-O-β-glucopyranoside]	mixed types of inhibitors	5800	7700 ± 100	100	
COc1cc(O)cc(-c2cc3cc(O)c(OC)cc3o2)c1 [Compound 4, moracin B]	competitive	1000	1100 ± 100	100	
O=c1ccc2cc(O)c(O)cc2o1 [Compound 1, aesculetin]		1200		100	6900 ± 500
